In paper PMC8251769, “Phosphonate as a Stable Zinc‐Binding Group for “Pathoblocker” Inhibitors of Clostridial Collagenase H (ColH)” (Chemmedchem, 2021):

Biological target: T1, MMP-8 (Homo sapiens, UniProt P22894)
T1 construct: gene MMP8; catalytic domain, AnaSpec
Assay: SensoLyte […] generic MMP activity kit
Type: biochemical
Conditions: read-out: Inhibition [%] at 100 μM compound^[a] / 26 (phosphonate)

T1 sequence (P22894 100-262 limits assumed): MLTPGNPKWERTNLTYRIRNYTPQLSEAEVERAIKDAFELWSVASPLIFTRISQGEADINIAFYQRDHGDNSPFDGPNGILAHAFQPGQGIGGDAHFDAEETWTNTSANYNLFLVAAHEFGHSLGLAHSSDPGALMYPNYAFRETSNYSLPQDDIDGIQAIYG

`CC(=O)c1ccc(NC(=O)CP(=O)(O)O)cc1` [compound 26, Disodium (2-((4-acetylphenyl)amino)-2-oxoethyl)phosphonate] was tested, and the inhibition at 100 µM was 36 ± 1%.

Biological target: T2, HDAC-8 (Homo sapiens, UniProt Q9BY41)
T2 construct: gene HDAC8
T2 sequence (Q9BY41 1-377): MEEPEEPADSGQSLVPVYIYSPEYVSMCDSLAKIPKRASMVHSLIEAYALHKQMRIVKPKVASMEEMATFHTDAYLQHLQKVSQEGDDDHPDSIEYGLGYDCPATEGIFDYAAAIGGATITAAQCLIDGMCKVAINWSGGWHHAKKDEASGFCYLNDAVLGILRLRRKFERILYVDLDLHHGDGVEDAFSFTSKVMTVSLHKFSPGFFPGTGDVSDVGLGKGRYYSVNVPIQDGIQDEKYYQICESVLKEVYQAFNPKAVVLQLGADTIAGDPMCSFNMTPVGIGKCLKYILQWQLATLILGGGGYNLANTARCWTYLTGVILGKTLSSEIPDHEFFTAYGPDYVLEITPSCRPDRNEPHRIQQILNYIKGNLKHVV
Assay: fluorescence inhibitor screening kit
Type: biochemical
Conditions: read-out: Inhibition [%] at 100 μM compound^[a] / 5 a (thiol)
From the text: fluorescence inhibitor screening kit on HDAC-8

Molecule `CC(=O)c1ccc(NC(=O)CS)cc1` [5a, thiol 5 a] has an inhibition at 100 µM of 48 ± 5%.

Biological target: T3, MMP-14 (Homo sapiens, UniProt P50281)
T3 construct: gene MMP14; catalytic domain, AnaSpec
Assay: SensoLyte […] generic MMP activity kit
Type: biochemical
Conditions: read-out: Inhibition [%] at 100 μM compound^[a] / 26 (phosphonate)

`CC(=O)c1ccc(NC(=O)CP(=O)(O)O)cc1` [compound 26, Disodium (2-((4-acetylphenyl)amino)-2-oxoethyl)phosphonate] gave an inhibition at 100 µM of 47 ± 13%.

Biological target: T4, HDAC-3 (Homo sapiens, UniProt O15379)
T4 construct: gene HDAC3
T4 sequence (O15379 whole entry): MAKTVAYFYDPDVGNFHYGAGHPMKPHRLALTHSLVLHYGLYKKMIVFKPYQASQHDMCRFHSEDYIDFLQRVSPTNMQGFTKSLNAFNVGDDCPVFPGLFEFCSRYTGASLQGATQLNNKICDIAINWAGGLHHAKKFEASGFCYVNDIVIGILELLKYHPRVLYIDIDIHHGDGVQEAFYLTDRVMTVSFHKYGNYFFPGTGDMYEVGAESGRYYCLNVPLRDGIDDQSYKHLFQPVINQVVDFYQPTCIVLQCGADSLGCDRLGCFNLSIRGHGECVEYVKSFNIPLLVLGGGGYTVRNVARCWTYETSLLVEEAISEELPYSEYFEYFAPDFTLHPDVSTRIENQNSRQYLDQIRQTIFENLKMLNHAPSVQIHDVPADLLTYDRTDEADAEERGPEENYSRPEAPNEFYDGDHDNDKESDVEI
Assay: fluorescence inhibitor screening kit
Type: biochemical
Conditions: read-out: Inhibition [%] at 100 μM compound^[a] / 5 a (thiol)
From the text: fluorescence inhibitor screening kit on HDAC-3

With `CC(=O)c1ccc(NC(=O)CS)cc1` [5a, thiol 5 a] the inhibition at 100 µM was 51 ± 7%.

Biological target: ColH-PD (peptidase domain of collagenase H) (Hathewaya histolytica, UniProt Q46085)
Sequence (Q46085 331-721 limits assumed): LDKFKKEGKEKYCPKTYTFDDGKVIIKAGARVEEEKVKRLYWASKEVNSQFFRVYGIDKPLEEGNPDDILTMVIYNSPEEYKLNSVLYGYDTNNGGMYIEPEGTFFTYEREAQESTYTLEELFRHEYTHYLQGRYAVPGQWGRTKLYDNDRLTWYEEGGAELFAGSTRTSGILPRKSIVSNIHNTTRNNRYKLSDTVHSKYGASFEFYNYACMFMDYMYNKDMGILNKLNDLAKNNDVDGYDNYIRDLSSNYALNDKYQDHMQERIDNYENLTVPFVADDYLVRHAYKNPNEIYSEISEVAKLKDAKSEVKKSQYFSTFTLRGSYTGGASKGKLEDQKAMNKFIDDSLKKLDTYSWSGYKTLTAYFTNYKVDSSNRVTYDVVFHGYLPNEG
Assay: biochemical
Conditions: not given

`CC(=O)c1ccc(NC(=O)Cn2cnnn2)cc1` [compound 17, N-(4-Acetylphenyl)-2-(1H-tetrazol-1-yl)acetamide] and `CC(=O)c1ccc(NC(=O)Cn2ccnn2)cc1` [compound 14, N-(4-Acetylphenyl)-2-(1H-1,2,3-triazol-1-yl)acetamide] cannot be ordered by IC50: greater than 500 µM for the first, greater than 500 µM for the second.

Compared with `CC(=O)c1ccc(NC(=O)Cn2cncn2)cc1` [compound 16, N-(4-Acetylphenyl)-2-(1H-1,2,4-triazol-1-yl)acetamide], `CC(=O)c1ccc(NC(=O)Cn2ccnc2)cc1` [compound 15, N-(4-Acetylphenyl)-2-(1H-imidazol-1-yl)acetamide] is lower in IC50: greater than 500 µM for the first, 448 ± 33 µM for the second.

`O=C(O)CCC(=O)Nc1ccccc1` [compound 10, 4-Oxo-4-(phenylamino)butanoic acid] and `O=C(O)CC(=O)Nc1ccccc1` [compound 9, 3-Oxo-3-(phenylamino)propanoic acid] cannot be ordered by IC50: greater than 500 µM for the first, greater than 500 µM for the second.

`CC(=O)c1ccc(NC(=O)CS(=O)(=O)O)cc1` [compound 24, Sodium 2-((4-acetylphenyl)amino)-2-oxoethane-1-sulfonate] and `CC(=O)c1ccc(NC(=O)CP(C)(=O)O)cc1` [compound 25, Sodium (2-((4-acetylphenyl)amino)-2-oxoethyl)(methyl)phosphinate] cannot be ordered by IC50: greater than 500 µM for the first, greater than 500 µM for the second.

Going from `O=C(CC(=O)Nc1ccccc1)NO` [compound 11, N^1-Hydroxy-N^3-phenylmalonamide] to `NC(=O)CC(=O)Nc1ccccc1` [compound 8, N^1-Phenylmalonamide], the IC50 rises from roughly 500 µM to greater than 500 µM. The first is the more potent here.

`CC(=O)c1ccc(NC(=O)CC#N)cc1` [compound 23, N-(4-Acetylphenyl)-2-cyanoacetamide] and `CCOP(C)(=O)CC(=O)Nc1ccc(C(C)=O)cc1` (centres unmarked) [compound 27, Ethyl (2-((4-acetylphenyl)amino)-2-oxoethyl)(methyl)phosphinate] cannot be ordered by IC50: greater than 500 µM for the first, greater than 500 µM for the second.

First: CC(=O)c1ccc(NC(=O)Cn2ncnn2)cc1 [compound 18, N-(4-acetylphenyl)-2-(2H-tetrazol-2-yl)acetamide]
Second: CC(=O)c1ccc(NC(=O)Cc2nn[nH]n2)cc1 [compound 19, N-(4-Acetylphenyl)-2-(2H-tetrazol-5-yl)acetamide]
The IC50 of the first is higher: greater than 500 µM for the first, 22 ± 1 µM for the second. The second is the more potent here.

Work on `CC(=O)c1ccc(NC(=O)Cc2c[nH]cn2)cc1` [compound 20, N-(4-Acetylphenyl)-2-(1H-imidazol-4-yl)acetamide] yielded an IC50 greater than 500 µM.

Same assay, conditions: read-out: IC50

`CC(=O)c1ccc(NC(=O)CP(=O)(O)O)cc1` [compound 26, Disodium (2-((4-acetylphenyl)amino)-2-oxoethyl)phosphonate] gave an IC50 of 7 ± 1 µM.
